Assay results as given in patent US20240116985A1, “STAPLED PEPTIDES AND METHODS THEREOF” (priority 2020, published 2024).
Like-named read-outs stand apart in the source and are kept apart here.

Experiments:
[1] = target: T1, full-length beta-Catenin (Uniprot ID P35222) (Homo sapiens, UniProt P35222); assay: Fluorescence polarization IC50 (beta-catenin / 5FAM-TCF4 10-53 competition); format: binding; details: fluorescence polarization; read-out: beta-Catenin FP IC50
T1 construct: 10 nM full-length beta-Catenin (Uniprot ID P35222)
T1 sequence (P35222 1-781): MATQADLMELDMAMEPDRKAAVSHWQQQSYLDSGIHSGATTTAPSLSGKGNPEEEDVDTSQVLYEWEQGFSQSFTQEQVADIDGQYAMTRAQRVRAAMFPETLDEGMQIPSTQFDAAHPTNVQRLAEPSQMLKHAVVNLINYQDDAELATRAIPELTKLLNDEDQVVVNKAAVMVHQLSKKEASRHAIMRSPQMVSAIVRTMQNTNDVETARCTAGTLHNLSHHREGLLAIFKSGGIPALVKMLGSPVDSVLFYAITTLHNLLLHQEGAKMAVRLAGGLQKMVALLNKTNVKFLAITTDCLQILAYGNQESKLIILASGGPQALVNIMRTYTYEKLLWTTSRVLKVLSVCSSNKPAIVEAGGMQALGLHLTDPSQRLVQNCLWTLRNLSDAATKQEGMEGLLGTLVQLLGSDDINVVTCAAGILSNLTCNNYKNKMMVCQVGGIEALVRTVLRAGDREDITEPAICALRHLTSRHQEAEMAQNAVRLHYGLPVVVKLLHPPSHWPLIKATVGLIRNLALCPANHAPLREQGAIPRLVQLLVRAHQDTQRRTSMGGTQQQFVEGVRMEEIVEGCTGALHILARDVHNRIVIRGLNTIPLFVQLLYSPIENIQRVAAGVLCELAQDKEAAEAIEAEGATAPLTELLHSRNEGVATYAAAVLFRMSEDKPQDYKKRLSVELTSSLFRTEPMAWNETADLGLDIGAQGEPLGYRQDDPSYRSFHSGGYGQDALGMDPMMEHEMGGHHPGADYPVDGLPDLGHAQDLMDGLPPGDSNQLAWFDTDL

[2] = target: T2, beta-catenin/TCF4 engagement (Homo sapiens, UniProt P35222); assay: Nano-BRET target engagement assay (B-cat-Halo & TCF4-Luc in HEK293 cells); format: cell-based; details: read-out: NanoBRET Abs IC50
T2 construct: expressed in transfected cells; host or cells: HEK293
T2 sequence (P35222 1-781): T1 sequence (P35222 1-781)

In the case of CC(=O)N1CCC[C@]12CC=CCCCC1(CCCC=CCCCOC(=O)N3CC[C@@](C(=O)N[C@@H](Cc4ccsc4)C(=O)N[C@@H](Cc4csc5ccccc45)C(=O)N[C@@H](CCC(N)=O)C(N)=O)(C3)NC(=O)[C@H](CC(C)C)NC(=O)[C@H](Cc3ccccc3)NC(=O)[C@H](C)NC(=O)[C@H](C)NC(=O)[C@H](CN(CC(=O)O)C(=O)CN3CCN(C)CC3)NC(=O)[C@H](CC(=O)O)NC1=O)NC(=O)[C@H](CC(C)(C)C)NC(=O)[C@H](CC(=O)O)NC2=O (stereo partly drawn) [I-2240, Ac-PL3-Asp-Npg-B5-Asp-[MePipAc]GA-Ala-Ala-Phe-Leu-PyrS2-3Thi-BztA-Gln-NH2], the IC50 [1] is reported as 5 nM and the IC50 ([2]; absolute IC50) is reported as > 20000 nM.
CC(=O)N1CCC[C@]12CC=CCCCC1(CCCC=CCCCOC(=O)N3CC[C@@](C(=O)N[C@@H](Cc4ccccc4Cl)C(=O)N[C@@H](Cc4csc5ccccc45)C(=O)N[C@@H](C)C(N)=O)(C3)NC(=O)[C@H](CC(C)C)NC(=O)[C@H](Cc3ccccc3)NC(=O)[C@H](C)NC(=O)[C@H](C)NC(=O)[C@H](Cc3cccc(C(=O)O)c3)NC(=O)[C@H](CC(=O)O)NC1=O)NC(=O)[C@H](CC(C)(C)C)NC(=O)[C@H](CC(=O)O)NC2=O (stereo partly drawn) [I-1851, Ac-PL3-Asp-Npg-B5-Asp-3COOHF-Ala-Ala-Phe-Leu-PyrS2-2C1F-BztA-Ala-NH2] gave an IC50 [1] of 25 nM and an IC50 [2] of 3800 nM.
CC(=O)N1CCC[C@]12CC=CCCCC1(CCCC=CCCCOC(=O)N3CC[C@@](C(=O)N[C@@H](Cc4ccccc4Cl)C(=O)N[C@@H](Cc4csc5ccccc45)C(=O)N[C@@H](CCS(C)(=O)=O)C(N)=O)(C3)NC(=O)[C@H](CC(C)C)NC(=O)[C@H](Cc3ccccc3)NC(=O)[C@H](C)NC(=O)[C@H](C)NC(=O)[C@H](Cc3cccc(C(=O)O)c3)NC(=O)[C@H](CC(=O)O)NC1=O)NC(=O)[C@H](CC(C)(C)C)NC(=O)[C@H](CC(=O)O)NC2=O (stereo partly drawn) [I-2062, Ac-PL3-Asp-Npg-B5-Asp-3COOHF-Ala-Ala-Phe-Leu-PyrS2-2C1F-BztA-Met2O-NH2] showed an IC50 [1] of 41 nM and an IC50 [2] of 3000 nM.
Compound CC(=O)N1CCC[C@]12CC=CCCCC1(CCCC=CCCCOC(=O)N3CC[C@@](C(=O)N[C@@H](Cc4ccsc4)C(=O)N[C@@H](Cc4csc5ccccc45)C(=O)N[C@H](CO)[C@@H](C)O)(C3)NC(=O)[C@H](Cc3ccccc3)NC(=O)[C@H](Cc3ccccc3)NC(=O)[C@H](C)NC(=O)[C@H](C)NC(=O)[C@H](Cc3ccccc3C(=O)O)NC(=O)[C@H](CC(=O)O)NC1=O)NC(=O)[C@H](CC(C)(C)C)NC(=O)[C@H](CC(=O)O)NC2=O (single isomer, unassigned) [I-1668, Ac-PL3-Asp-Npg-B5-Asp-2COOHF-Ala-Ala-Phe-Phe-PyrS2-3Thi-BztA-Thro1] has an IC50 [1] of 29 nM and an IC50 ([2]; absolute IC50) of 16400 nM.
CC(=O)N1CCC[C@]12CC=CCCCC[C@@](C)(C(=O)N[C@@H](CC(=O)O)C(=O)N[C@@H](CC(=O)O)C(=O)N[C@@H](C)C(=O)N[C@@H](C)C(=O)N[C@@H](Cc1ccccc1)C(=O)N[C@@H](CC(C)C)C(=O)NC(C)(C)C(=O)N[C@@H](Cc1ccsc1)C(=O)N[C@@H](Cc1csc3ccccc13)C(=O)N[C@@H](CCC(N)=O)C(N)=O)NC(=O)[C@H](CC(C)(C)C)NC(=O)[C@H](CC(=O)O)NC2=O [I-1978, Ac-PL3-Asp-Npg-S6-Asp-Asp-Ala-Ala-Phe-Leu-Aib-3Thi-BztA-Gln-NH2] was tested, and the IC50 [1] was 145 nM and the IC50 [2] was > 20000 nM.
For CC(=O)N1CCC[C@]12CC=CCCCC1(CCCC=CCCCOC(=O)N3CC[C@@](C(=O)N[C@@H](Cc4ccsc4)C(=O)N[C@@H](Cc4csc5ccccc45)C(=O)N[C@@H](CC(C)C)C(N)=O)(C3)NC(=O)[C@H]([C@@H](C)O)NC(=O)[C@H](Cc3ccccc3)NC(=O)[C@H](C)NC(=O)[C@H](CCCCNC(C)C)NC(=O)[C@H](CN(CC(=O)O)CC(F)(F)F)NC(=O)[C@H](CC(=O)O)NC1=O)NC(=O)[C@H](CC(C)(C)C)NC(=O)[C@H](CC(=O)O)NC2=O (stereo partly drawn) [I-1760, Ac-PL3-Asp-Npg-B5-Asp-TfeGA-iPrLys-Ala-Phe-Thr-PyrS2-3Thi-BztA-Leu-NH2], the IC50 [1] was 32 nM and the IC50 ([2]; absolute IC50) was > 20000 nM.
In the case of CC(=O)N1CCC[C@]12CC=CCCCC1(CCCC=CCCCOC(=O)N3CC[C@@](C(=O)N[C@@H](Cc4ccsc4)C(=O)N[C@@H](Cc4csc5ccccc45)C(=O)N[C@@H](CC(N)=O)C(=O)N[C@@H](C)C(=O)N[C@@H](CC(C)C)C(=O)N[C@@H](C)C(=O)N[C@@H](CC(C)C)C(=O)N[C@@H](C)C(=O)N[C@@H](CC(C)C)C(=O)N[C@@H](C)C(N)=O)(C3)NC(=O)[C@H](CC(C)C)NC(=O)[C@H](Cc3ccccc3)NC(=O)[C@H](C)NC(=O)[C@H](C)NC(=O)[C@H](Cc3cccc(C(=O)O)c3)NC(=O)[C@H](CC(=O)O)NC1=O)NC(=O)[C@H](CC(C)(C)C)NC(=O)[C@H](CC(=O)O)NC2=O (some centres unmarked) [I-2283], the IC50 [1] is reported as 2860 nM and the IC50 ([2]; absolute IC50) is reported as 4500 nM.
CC(=O)N1CCC[C@]12CC=CCCCC1(CCCC=CCCCCCC[C@@](C)(C(=O)N[C@@H](Cc3ccccc3)C(=O)N[C@@H](Cc3csc4ccccc34)C(=O)N[C@@H](CCC(N)=O)C(N)=O)NC(=O)[C@H](CCC(N)=O)NC(=O)[C@H](Cc3ccccc3)NC(=O)[C@H](C)NC(=O)[C@H](C)NC(=O)[C@H](CCC(=O)O)NC(=O)[C@H](CC(=O)O)NC1=O)NC(=O)[C@H](CCCCN)NC(=O)[C@H](CC(=O)O)NC2=O (stereo partly drawn) [I-1552, Ac-PL3-Asp-Lys-B5-Asp-Glu-Ala-Ala-Phe-Gln-S8-Phe-BztA-Gln-NH2] was tested, and the IC50 [1] was 56 nM and the IC50 ([2]; absolute IC50) was > 20000 nM.
In the case of CC(=O)N1CCC[C@]12CC=CCCCC1(CCCC=CCCCOC(=O)N3CC[C@@](C(=O)N[C@@H](Cc4ccccc4Cl)C(=O)N[C@@H](Cc4csc5ccccc45)C(=O)N[C@@H](C)C(N)=O)(C3)NC(=O)[C@H](CO)NC(=O)[C@H](Cc3ccccc3)NC(=O)[C@H](C)NC(=O)[C@H](C)NC(=O)[C@H](Cc3cccc(C(=O)O)c3)NC(=O)[C@H](CC(=O)O)NC1=O)NC(=O)[C@H](CC(C)(C)C)NC(=O)[C@H](CC(=O)O)NC2=O (stereo partly drawn) [I-2027, Ac-PL3-Asp-Npg-B5-Asp-3COOHF-Ala-Ala-Phe-Ser-PyrS2-2C1F-BztA-Ala-NH2], the IC50 [1] is reported as 13 nM and the IC50 [2] is reported as 4100 nM.
CC(=O)N1CCC[C@]12CC=CCCCC1(CCCC=CCCCCCC[C@@](C)(C(=O)N[C@@H](Cc3ccccc3)C(=O)N[C@@H](Cc3csc4ccccc34)C(=O)N[C@@H](CCC(N)=O)C(N)=O)NC(=O)[C@H](CCO)NC(=O)[C@H](Cc3ccccc3)NC(=O)[C@H](C)NC(=O)[C@H](C)NC(=O)[C@H](CCC(=O)O)NC(=O)[C@H](CC(=O)O)NC1=O)NC(=O)[C@H](CCC(C)C)NC(=O)[C@H](CC(=O)O)NC2=O (stereo partly drawn) [I-1537, Ac-PL3-Asp-Hleu-B5-Asp-Glu-Ala-Ala-Phe-Hse-S8-Phe-BztA-Gln-NH2] gave an IC50 [1] of 31 nM and an IC50 ([2]; absolute IC50) of 13900 nM.
CC(=O)N1CCC[C@]12CC=CCCCC1(CCCC=CCCCCCC[C@@](C)(C(=O)N[C@@H](Cc3ccccc3)C(=O)N[C@@H](Cc3csc4ccccc34)C(=O)N[C@@H](CCC(N)=O)C(N)=O)NC(=O)[C@H](CCC(N)=O)NC(=O)[C@H](Cc3ccccc3)NC(=O)[C@H](C)NC(=O)[C@H](C)NC(=O)[C@H](CCC(=O)O)NC(=O)[C@H](CC(=O)O)NC1=O)NC(=O)[C@H](CC(C)C)NC(=O)[C@H](CC(=O)O)NC2=O (stereo partly drawn) [I-1458, Ac-PL3-Asp-Leu-B5-Asp-Glu-Ala-Ala-Phe-Gln-S8-Phe-BztA-Gln-NH2] gave an IC50 [1] of 26 nM and an IC50 ([2]; absolute IC50) of 18100 nM.
CC(=O)N1CCC[C@]12CC=CCCCC1(CCCC=CCCCOC(=O)N3CC[C@@](C(=O)N[C@@H](Cc4ccccc4)C(=O)N[C@@H](Cc4csc5ccccc45)C(=O)N[C@@H](CC(=O)N4CCOCC4)C(N)=O)(C3)NC(=O)[C@H](CC(C)C)NC(=O)[C@H](Cc3ccccc3)NC(=O)[C@H](C)NC(=O)[C@H](CCCCNC(=O)CN3CCOCC3)NC(=O)[C@H](CCC(N)=O)NC(=O)[C@H](CC(=O)O)NC1=O)NC(=O)[C@H](CC1CCCCC1)NC(=O)[C@H](CC(N)=O)NC2=O (stereo partly drawn) [I-2527, Ac-PL3-Asn-Cha-B5-Asp-Gln-[MorphAc]Lys-Ala-Phe-Leu-PyrS2-Phe-BztA-MorphAsn-NH2] was tested, and the IC50 [1] was 263 nM and the IC50 ([2]; absolute IC50) was > 20000 nM.
CC(=O)N1CCC[C@]12CC=CCCCC1(CCCC=CCCCOC(=O)N3CC[C@@](C(=O)N[C@@H](Cc4ccsc4)C(=O)N[C@@H](Cc4csc5ccccc45)C(=O)N[C@@H](CCC(N)=O)C(N)=O)(C3)NC(=O)[C@H](CC(C)C)NC(=O)[C@H](Cc3ccccc3)NC(=O)[C@H](C)NC(=O)[C@H](C)NC(=O)[C@H](Cc3cccc(C(=O)O)c3)NC(=O)[C@H](CC(=O)O)NC1=O)NC(=O)[C@H](CC(C)C)NC(=O)[C@H](CC(=O)O)NC2=O (stereo partly drawn) [I-1406, Ac-PL3-Asp-Leu-B5-Asp-3COOHF-Ala-Ala-Phe-Leu-PyrS2-3Thi-BztA-Gln-NH2] showed an IC50 [1] of 6 nM and an IC50 ([2]; absolute IC50) of 5000 nM.
